# Results published in publication PMC5668067, “Phase I dose-escalation study of the c-Met tyrosine kinase inhibitor SAR125844 in Asian patients with advanced solid tumors, including patients with MET-amplified gastric cancer” (Oncotarget, 2017).
# Read-outs that look alike come from different tables or passages of the source.
# What was measured:
# [1] = test system: patients with solid tumors; design: method as in ref 9 = [9]; 9 Angevin E Spitaleri G Hollebecque A De Pas T Soria JC Harnois M Mazuir F Assadourian S De Marinis F A first-in-human (FIH) phase I study of SAR125844, a novel selective MET kinase inhibitor, in pati; conditions: cited from earlier work
# [2] = phase I pharmacokinetics in blood (dried blood spot, LC-MS/MS, noncompartmental analysis); format: in vivo, human; conditions: for fold increase in AUC0–168: 2.19-fold increase in dose (260 to 570 mg/m^2); for Cmax / AUC(0-t) / clearance / Vd / half-life / AUC: human, whole blood (dried blood spot), intravenous; for Cmax: blood; for AUC(0-t): read-out: AUC0–168; for clearance: read-out: CL (converted); for Vd: read-out: Vss; for half-life: read-out: t1/2z (converted)
# Experimental: Blood samples for pharmacokinetic analysis were acquired using dried blood-spot technology on days 1 and 22 of cycle 1 at several time points before, during, and after infusion (up to 168 hours after administration). Drug concentrations were determined by a validated method of liquid chromatography and tandem mass spectrometry (limit of quantification 2 ng/mL). Pharmacokinetic parameters were calculated using a noncompartmental analysis and included the maximum observed blood concentration (Cmax), AUC from 0 to infinity, AUC0–168, CL, CL after repeated administrations (CLss), volume of distribution at steady state (Vss), and the half-life associated with the terminal slope (t1/2z).
# [3] = 260 mg/m2, 260 mg/m^2, cycle 1 Day 1, n = 5, mean ± SD
# [4] = 260 mg/m2, 260 mg/m^2, cycle 1 Day 22, N = 2, mean
# [5] = 340 mg/m2, 340 mg/m^2, cycle 1 Day 1, N = 2, mean
# [6] = 340 mg/m2, 340 mg/m^2, cycle 1 Day 22, N = 3, mean ± SD
# [7] = 440 mg/m2, 440 mg/m^2, cycle 1 Day 1, n = 2, mean
# [8] = 440 mg/m2, 440 mg/m^2, cycle 1 Day 22, N = 3, mean ± SD
compound,measurement,setting,value
O=C(NCCN1CCOCC1)Nc1nc2ccc(Sc3nnc4ccc(-c5ccc(F)cc5)nn34)cc2s1 [SAR125844],recommended dose (RD),"[1]; first-in-human study, Western countries, intravenously",570 mg/m^2 per week
same,tolerability profile,"[1]; first-in-human study, doses 50‒740 mg/m^2",acceptable tolerability profile
same,antitumor activity,[1]; one patient with lung adenocarcinoma and MET amplification,Preliminary evidence of antitumor activity
same,fold increase in AUC0–168,[2]; day 1,3.00 fold
same,fold increase in AUC0–168,[2]; day 22,2.69 fold
same,accumulation between days 1 and 22,[2]; four repeated once-weekly infusions,no accumulation
same,Cmax,"[2]; 260 mg/m2, 260 mg/m^2, cycle 1 Day 1, N = 6, mean ± SD",4140 ± 1070 ng/mL
same,AUC(0-t),[2]; [3],11800 ± 2960 ng·h/mL
same,clearance,[2]; [3],608 mL/min
same,Vd,[2]; [3],232 ± 57.5 L
same,half-life,[2]; [3],12.6 ± 6.05 h
same,AUC,[2]; [4],12600 ng·h/mL
same,Cmax,[2]; [4],3550 ng/mL
same,AUC(0-t),[2]; [4],12700 ng·h/mL
same,clearance,[2]; [4],533 mL/min
same,Vd,[2]; [4],186 L
same,half-life,[2]; [4],12.6 h
same,AUC,"[2]; 260 mg/m2, AUC from 0 to infinity, 260 mg/m^2, cycle 1 Day 1, n = 5, mean ± SD",11800 ± 2950 ng·h/mL
same,AUC,[2]; [5],16400 ng·h/mL
same,Cmax,[2]; [5],4290 ng/mL
same,AUC(0-t),[2]; [5],16400 ng·h/mL
same,clearance,[2]; [5],565 mL/min
same,Vd,[2]; [5],246 L
same,half-life,[2]; [5],12.9 h
same,AUC,[2]; [6],16500 ± 2390 ng·h/mL
same,Cmax,[2]; [6],4700 ± 976 ng/mL
same,AUC(0-t),[2]; [6],16500 ± 2390 ng·h/mL
same,clearance,[2]; [6],557 mL/min
same,Vd,[2]; [6],291 ± 52.6 L
same,half-life,[2]; [6],20.6 ± 4.69 h
same,Cmax,"[2]; 440 mg/m2, 440 mg/m^2, cycle 1 Day 1, N = 3, mean ± SD",6390 ± 1010 ng/mL
same,AUC,[2]; [7],22000 ng·h/mL
same,AUC(0-t),[2]; [7],22100 ng·h/mL
same,clearance,[2]; [7],530 mL/min
same,Vd,[2]; [7],202 L
same,half-life,[2]; [7],12.1 h
same,AUC,[2]; [8],25400 ± 5300 ng·h/mL
same,Cmax,[2]; [8],5840 ± 1420 ng/mL
same,AUC(0-t),[2]; [8],25300 ± 5220 ng·h/mL
same,clearance,[2]; [8],503 mL/min
